Results on eleven compounds are retold here after ChEMBL document CHEMBL1201862, “PubChem BioAssay data set” (2004).

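How tested: cells in 96-well plates exposed to compound for 48 hours at five concentrations. GI50 marks 50% less growth.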 Activity calls are given as the source filed them. Cut-off read from the data, not from the text of the source: active = GI50 up to about 1.1 µM and inactive = higher.

What all share (test): inhibition of tumour cell growth, NCI panel, 48 h
Test [1] concerns 786-0.
In test [2] the test system is A498.
Test [3] relates to HCT-116.
Test [4] has as its system HCT-15.
Test [5] has as its system HL-60.
Test [6] concerns HOP-92.
In test [7] the test system is Hs-578T.
Test [8] deals with MCF7.
Test [9] concerns OVCAR-3.
Test [10] relates to OVCAR-4.
Test [11] concerns OVCAR-5.
Test [12] relates to SF-295.
The subject of test [13] is SK-MEL-28.
For test [14], the system named is SN12C.
The test system of test [15] is SNB-19.
For test [16], the system named is SR.
Test [17] concerns UACC-257.
Test [18] deals with UACC-62.
Test [19] concerns UO-31.
Test [20] deals with Malme-3M.

For the compound `CCOC(=O)c1cc([N+](=O)[O-])cc([N+](=O)[O-])c1Sc1[nH]cnc2ncnc1-2`, the GI50 in test [1] was 0.824 µM (active); in test [2], 12.2 µM (inactive); in [3] it was 2.12 µM (inactive); in test [4] it was 4.33 µM; in test [5], 1.94 µM (inactive); in [6] it was 0.771 µM (active). For the same compound, the GI50 is 6.92 µM (inactive) in test [7]; 1.61 µM (inactive) in test [8]; 1.12 µM (active) in test [9]; 1.03 µM (active) in test [10]; 9.71 µM (inactive) in [11]; 7.29 µM (inactive) in [12]. The GI50 in test [13] is 3.13 µM (inactive); in [14] it was 2.21 µM (inactive); in test [15], 19.5 µM (inactive); in test [16] it was 2.38 µM (inactive); in test [17], 6.21 µM (inactive); in test [18] it was 4.5 µM (inactive). In addition, the GI50 in [19] was 1.75 µM (inactive).

`CCOP(=O)(COCCn1ncc(=O)[nH]c1=O)OCC`: the GI50 in test [2] was > 100 µM (inactive); in test [4] it was > 100 µM; in [5], > 100 µM (inactive); in [6], > 100 µM (inactive); in [7], > 100 µM (inactive); in test [8], > 100 µM (inactive). Further, the GI50 in test [20], in test [9], in [11], in test [13], in test [14] and in [15] was > 100 µM (inactive) throughout. Also, the GI50 in [16] and in test [19] was > 100 µM (inactive) in each case.

For the compound `CC(=O)Nc1ccc(Nc2cc(=O)n(C)c(=O)[nH]2)cc1`, the GI50 was > 100 µM (inactive) in test [1]; > 100 µM (inactive) in [2]; > 100 µM (inactive) in test [3]; > 100 µM in test [4]; > 100 µM (inactive) in test [6]; > 100 µM (inactive) in [7]. Moreover, the GI50 in test [8], in [20], in [9], in test [10], in [11] and in test [12] was > 100 µM (inactive) throughout. The GI50 in [13], in test [14], in test [15], in test [16], in test [17] and in [18] was > 100 µM (inactive) throughout. Moreover, in test [19], the GI50 is > 100 µM (inactive).

For `CN1C(=O)CC2CCCN2C1=O` (centres undefined), the GI50 in [1] is > 100 µM (inactive); in [2], > 100 µM (inactive); in test [4], > 100 µM; in [6], 86.9 µM (inactive); in test [7] it was > 100 µM (inactive); in test [8], > 100 µM (inactive). In addition, the GI50 in test [20] was > 100 µM (inactive); in test [9], > 100 µM (inactive); in [10], > 100 µM (inactive); in [11], > 100 µM (inactive); in test [12] it was > 100 µM (inactive); in test [13], 5.09 µM (inactive). Further, the GI50 in test [15], in [16], in [17], in test [18] and in test [19] was > 100 µM (inactive) each time.

Take `CCOC(=O)c1ccc(C(=O)/C(C(=O)OC(C)(C)C)=C2\CCCN2C)n1C`: the GI50 in test [1] was > 100 µM (inactive); in test [2], 77.1 µM (inactive); in test [3], 48.5 µM (inactive); in test [4], 95.1 µM; in test [5] it was 27.4 µM (inactive); in test [7], > 100 µM (inactive). In addition, the GI50 is 55.8 µM (inactive) in [8]; > 100 µM (inactive) in test [20]; 37.8 µM (inactive) in test [9]; 46.6 µM (inactive) in [10]; > 100 µM (inactive) in [11]; 28.7 µM (inactive) in [12]. Also, the GI50 in test [13] was > 100 µM (inactive); in [14], > 100 µM (inactive); in test [15] it was > 100 µM (inactive); in test [16], 31.6 µM (inactive); in [17], 54 µM (inactive); in test [18] it was 44.2 µM (inactive). Further, the GI50 in test [19] is 90.4 µM (inactive).

Regarding `C=C(C)C1CC2(C)C(C)CC(OC(=O)/C(C)=C\C)CC2C(OC(=O)/C(C)=C\C)C1O` (centres undefined), the GI50 is > 100 µM (inactive) in [1]; > 100 µM (inactive) in [2]; 56.1 µM (inactive) in [3]; 42 µM in test [4]; 21.4 µM (inactive) in test [5]; 51.2 µM (inactive) in [6]. Also, the GI50 in [7] was 34.7 µM (inactive); in test [8] it was 41.2 µM (inactive); in test [20], > 100 µM (inactive); in test [10], > 100 µM (inactive); in [11], > 100 µM (inactive); in test [13] it was > 100 µM (inactive). In addition, the GI50 in test [14] is 62.2 µM (inactive); in test [15], 25.1 µM (inactive); in test [16], 19.8 µM (inactive); in [17], 89.1 µM (inactive); in test [18] it was 84.5 µM (inactive); in test [19] it was 39.8 µM (inactive).

Turning to `Nc1c(/C=C/c2cc3cc(C4=NCCN4)ccc3o2)[nH]c2cc(C3=NCCN3)ccc12`, the GI50 in test [1] is 37.3 µM (inactive); in [2] it was > 100 µM (inactive); in [3] it was 29.4 µM (inactive); in test [4] it was 41.6 µM; in [5] it was 29.6 µM (inactive); in test [6], 99.8 µM (inactive). The GI50 in test [7] was > 100 µM (inactive); in test [8], 40.7 µM (inactive); in [9], 35.6 µM (inactive); in test [10], 47.1 µM (inactive); in [11], > 100 µM (inactive); in test [12] it was 34.3 µM (inactive). Further, the GI50 in test [13] is 32 µM (inactive); in [14] it was 33.2 µM (inactive); in test [15], 66.2 µM (inactive); in test [16], 43.7 µM (inactive); in test [17] it was 46.7 µM (inactive); in test [18], 38 µM (inactive). Moreover, the GI50 in [19] is 40.6 µM (inactive).

Take `N=C(N)NCCCC(NC(=O)OCCCCCn1ccc(N)nc1=O)C(=O)O` (centres undefined): the GI50 in [1] was > 100 µM (inactive); in test [2], > 100 µM (inactive); in test [3] it was > 100 µM (inactive); in [4], > 100 µM; in test [5], > 100 µM (inactive); in [6], > 100 µM (inactive). Moreover, the GI50 in test [7], in test [8], in test [9], in [10], in test [11] and in [12] was > 100 µM (inactive) each time. Besides, the GI50 in [13], in test [14], in [15], in [16], in test [17] and in test [18] was > 100 µM (inactive) throughout. In addition, in test [19], the GI50 is > 100 µM (inactive).

With `O=c1[nH]c(=O)n(C2C(CO)OC(CO)C2O)cc1F` (centres undefined), the GI50 in test [1] was > 100 µM (inactive); in test [2], > 100 µM (inactive); in test [3], > 100 µM (inactive); in [4], > 100 µM; in [6], > 100 µM (inactive); in test [7], > 100 µM (inactive). Besides, the GI50 in test [8], in [20], in test [9], in test [10], in test [11] and in test [12] was > 100 µM (inactive) in each case. The GI50 in test [13], in [14], in [15], in [16], in [17] and in [18] was > 100 µM (inactive) each time. Also, in [19], the GI50 was > 100 µM (inactive).

For the compound `Nc1ncc2c(n1)-c1ccccc1OC2NC1CC1` (centres undefined), the GI50 in [1] was > 100 µM (inactive); in test [2], > 100 µM (inactive); in test [3], > 100 µM (inactive); in [4] it was > 100 µM; in test [5], > 100 µM (inactive); in test [6], > 100 µM (inactive). Further, the GI50 in test [7], in [8], in test [9], in test [10], in test [11] and in test [12] was > 100 µM (inactive) throughout. Moreover, the GI50 in test [14], in [15], in test [16], in test [17], in test [18] and in test [19] was > 100 µM (inactive) in each case.

`COc1cc(S(=O)(=O)Nc2ccc(-c3csc(N4C(=O)C(C)SC4c4ccccc4O)n3)cc2)ccc1Cl` (centres undefined): the GI50 in [1] was 35.1 µM (inactive); in test [2] it was > 100 µM (inactive); in test [3] it was 30.1 µM (inactive); in test [4], 36.9 µM; in test [5], 27.3 µM (inactive); in [6], 31.3 µM (inactive). Also, the GI50 in test [7] is 31.2 µM (inactive); in [8], 35.2 µM (inactive); in [20], 17.9 µM (inactive); in test [9], 69.5 µM (inactive); in test [11], 95.1 µM (inactive); in [12], 59.3 µM (inactive). Moreover, the GI50 in test [13] is 16.1 µM (inactive); in test [14], 40.9 µM (inactive); in test [15], > 100 µM (inactive); in test [16] it was 36.2 µM (inactive); in test [18] it was 31 µM (inactive); in test [19] it was 38.6 µM (inactive).
